According to patent US20160304556A1, “[…] ACTIVE COMPOUNDS AND THEIR METHODS OF USE” (AGIOS PHARMACEUTICALS, INC, priority 2012, published 2016):

Key:
[1] = molecular target: IDH1 R132H (Homo sapiens, UniProt O75874, R132H); assay: In vitro NADPH depletion assay for IDH1m R132H inhibitors; format: biochemical; conditions: enzyme, diaphorase/resazurin readout, read-out: IDH R132H IC50
Procedure, shortened: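 IDH1-R132H homodimer […] was preincubated with compound for 60 min at room temperature in 20 mM Tris-Cl pH 7.5, 150 mM NaCl, 10 mM MgCl2, 0.05% BSA, 2 mM b-mercaptoethanol. Substrate mix (NADPH, 5 mM alpha-ketoglutarate) then reacted for 90 min. Remaining NADPH was read by diaphorase/resazurin fluorescence at Ex544/Em590.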

[2] = molecular target: IDH1 R132C (Homo sapiens, UniProt O75874, R132C); assay: In vitro NADPH depletion assay for IDH1m R132C inhibitors; format: biochemical; conditions: enzyme, diaphorase/resazurin readout, read-out: IDH R132C IC50
Chain of IDH1 R132C (O75874 whole entry R132C): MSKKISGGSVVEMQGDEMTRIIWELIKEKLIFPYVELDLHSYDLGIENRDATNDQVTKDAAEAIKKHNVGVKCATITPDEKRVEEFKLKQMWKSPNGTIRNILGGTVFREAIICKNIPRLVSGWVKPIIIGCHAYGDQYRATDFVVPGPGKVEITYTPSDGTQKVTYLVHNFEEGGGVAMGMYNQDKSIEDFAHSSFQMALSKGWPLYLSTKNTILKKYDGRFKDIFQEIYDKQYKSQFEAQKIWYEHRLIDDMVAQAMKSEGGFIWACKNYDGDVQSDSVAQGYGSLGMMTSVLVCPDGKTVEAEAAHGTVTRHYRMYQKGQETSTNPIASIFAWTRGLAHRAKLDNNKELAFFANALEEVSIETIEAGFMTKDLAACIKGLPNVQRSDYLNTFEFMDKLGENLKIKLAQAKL
Description: A test compound is prepared as 10 mM stock in DMSO and diluted to 50× final concentration in DMSO, for a 50 μl reaction mixture. IDH enzyme activity converting alpha-ketoglutarate to 2-hydroxyglutaric acid is measured using a NADPH depletion assay. In the assay the remaining cofactor is measured at the end of the reaction with the addition of a catalytic excess of diaphorase and resazurin, to generate a fluorescent signal in proportion to the amount of NADPH remaining. IDH1-R132 homodimer enzyme is diluted to […] in 40 μl of Assay Buffer(150 mM NaCl, 20 mM Tris-Cl pH 7.5, 10 mM MgCl2, 0.05% BSA, 2 mM b-mercaptoethanol); 1 μl of test compound dilution in DMSO is added and the mixture is incubated for 60 minutes at room temperature. The reaction is started with the addition of 10 μl of Substrate Mix ([…], 5 mM alpha-ketoglutarate, in Assay Buffer) and the mixture is incubated for 90 minutes at room temperature. The reaction is terminated with the addition of 25 μl of Detection Buffer (36 μg/ml diaphorase, […], in 1× Assay Buffer), and is incubated for 1 minute before reading on a SpectraMax platereader at Ex544/Em590.
Compounds are assayed for their activity against IDH1 R132C following the same assay as above with the following modifications: Assay Buffer is (50 mM potassium phosphate, pH 6.5; 40 mM sodium carbonate, 5 mM MgCl2, 10% glycerol, 2 mM b-mercaptoethanol, and 0.03% BSA). The concentration of NADPH and alpha-ketoglutarate in the Substrate Buffer is 20 μM and 1 mM, respectively.
Representative compounds of formula I set forth in Table 1 were tested in this assay and the results are set forth below in Table 3.

[3] = tested on: HT1080 cells; assay: Cellular assay, inhibition of 2-HG production (LC-MS) in HT1080 cells; format: cell-based; conditions: Homo sapiens, HT-1080, 48 hours, LC-MS of media
Procedure, shortened: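 HT1080 cells (5000/well) were incubated 48 hours with compound, 0.2% DMSO final. Medium 2-HG was quantified by LC-MS, and IC50 was taken as the concentration giving 50% reduction versus DMSO control. Viability was read by CellTiter-Glo luminescence at 72 hours.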

Chain of IDH1 R132H (O75874 whole entry R132H): as the sequence (O75874 whole entry R132C) above, with C132H counted along it

Row | Structure (SMILES) | IC50 [1] | IC50 [2] | IC50 [3]
1 | O=C(NC1CC(F)(F)C1)[C@H](c1ccccc1Cl)N(C(=O)[C@@H]1C[C@@H](O)CN1c1ncccn1)c1cccc(F)c1 [Compound 100, (2S,4R)—N—((S)-1-(2-chlorophenyl)-2-(3,3-difluorocyclobutyl-amino)-2-oxoethyl)-N-(3-fluorophenyl)-4-hydroxy-1-(pyrimidin-2-yl)pyrrolidine-2-carbox-amide] | ≤ 100 nM | ≤ 100 nM | 100 to 500 nM
2 | COC(=O)N[C@@H](CO)C(=O)N(c1cccc(F)c1)C(C(=O)NC1CCC(F)(F)CC1)c1ccccc1Cl (stereo partly drawn) [Compound 101] | 100 to 500 nM | 100 to 500 nM | 1000 to 2000 nM
3 | COC(=O)N1CC[C@H]1C(=O)N(c1cccc(F)c1)[C@H](C(=O)NC1CC(F)(F)C1)c1ccccc1Cl [Compound 106] | ≤ 100 nM | 100 to 500 nM | 100 to 500 nM
4 | O=C1C[C@@H](C(=O)N(c2cccc(F)c2)[C@H](C(=O)NC2CC(F)(F)C2)c2ccccc2Cl)N(c2ncccn2)C1 [Compound 107] | ≤ 100 nM | ≤ 100 nM | ≤ 100 nM
5 | O=C(NC1CC(F)(F)C1)[C@@H](c1ccccc1Cl)N(C(=O)[C@H](CO)Nc1ncccn1)c1cccc(F)c1 [Compound 108] | 100 to 500 nM | ≤ 100 nM | 100 to 500 nM
6 | O=C(NC1CC(F)(F)C1)[C@H](c1ccccc1Cl)N(C(=O)[C@H](CO)Nc1ncccn1)c1cccc(F)c1 [Compound 109] | ≤ 100 nM | ≤ 100 nM | ≤ 100 nM
7 | C[C@H]1CC[C@@H](C(=O)N(c2cccc(F)c2)[C@@H](C(=O)NC2CCC(F)(F)CC2)c2ccccc2Cl)N1c1ncccn1 [Compound 110, (2S,5S)—N—((R)-1-(2-chlorophenyl)-2-(4,4-difluorocyclohexylamino)-2-oxoethyl)-N-(3-fluorophenyl)-5-methyl-1-(pyrimidin-2-yl)pyrrolidine-2-carboxamide] | ≤ 100 nM | ≤ 100 nM | 100 to 500 nM
8 | C[C@H]1CC[C@@H](C(=O)N(c2cccc(F)c2)[C@H](C(=O)NC2CCC(F)(F)CC2)c2ccccc2Cl)N1c1ncccn1 [Compound 111, (2S,5S)—N—((S)-1-(2-chlorophenyl)-2-(4,4-difluorocyclohexylamino)-2-oxoethyl)-N-(3-fluorophenyl)-5-methyl-1-(pyrimidin-2-yl)pyrrolidine-2-carboxamide] | ≤ 100 nM | ≤ 100 nM | 100 to 500 nM
9 | C[C@H]1CC[C@@H](C(=O)N(c2cccc(F)c2)[C@@H](C(=O)NC2CC(F)(F)C2)c2ccccc2Cl)N1c1ncccn1 [Compound 112, (2S,5S)—N—((R)-1-(2-chlorophenyl)-2-(3,3-difluorocyclobutylamino)-2-oxoethyl)-N-(3-fluorophenyl)-5-methyl-1-(pyrimidin-2-yl)pyrrolidine-2-carboxamide] | 100 to 500 nM | ≤ 100 nM | 100 to 500 nM
10 | C[C@H]1CC[C@@H](C(=O)N(c2cccc(F)c2)[C@H](C(=O)NC2CC(F)(F)C2)c2ccccc2Cl)N1c1ncccn1 [Compound 113, (2S,5S)—N—((S)-1-(2-chlorophenyl)-2-(3,3-difluorocyclobutylamino)-2-oxoethyl)-N-(3-fluorophenyl)-5-methyl-1-(pyrimidin-2-yl)pyrrolidine-2-carboxamide] | ≤ 100 nM | ≤ 100 nM | 100 to 500 nM
